# Values quoted from earlier work in PubChem BioAssay AID1259409 (Chemical Carcinogenesis Research Information System (CCRIS), 2018).
# Test system: rodent chemically induced tumor inhibition, incidence and multiplicity
# Test: CCRIS tumor inhibitor studies
compound,measurement,setting,value
CC/C(=C(\c1ccccc1)c1ccc(OCCN(C)C)cc1)c1ccccc1,"tumour outcome (control, treated, inhibition, significance)","Carcinogen: 1,2-DIMETHYLHYDRAZINE HYDROCHLORIDE, 306-37-6, Dose [Inhibitor]: 0, 0.5 UG/G/D IN DIET FOR 28 WK (STUDY DURATION: 28 WK), Route [Inhibitor]: ORAL, Species: RAT, Strain/Sex: SPRAGUE-DAWLEY/FEMALE, Target Tissue: Type of Lesion: COLON: TUMOR, Dose [Carcinogen]: 20 MG/KG BW 1/WK FOR 28 WK, Promoter: NONE USED","26/36 (72%), 17/33 (52%), 28%, p<0.001"
same,"tumour outcome (control, treated, inhibition, significance)","Carcinogen: 3-METHYLCHOLANTHRENE, 56-49-5, Dose [Inhibitor]: 0, 50 UG/KG FOR DURATION OF STUDY (STUDY DURATION: LIFETIME), Route [Inhibitor]: SUBCUTANEOUS, Species: MOUSE, Strain/Sex: SWISS/FEMALE, Target Tissue: Type of Lesion: CERVIX: CARCINOMA, Dose [Carcinogen]: CARCINOGEN AND BEESWAX (1:3) IMPREGNATED THREAD INSERTED IN THE CANAL OF THE UTERINE CERVIX, Promoter: NONE USED","60%, 30%, 50%, p<0.01"
same,"tumour outcome (control, treated, inhibition, significance)","Carcinogen: 3-METHYLCHOLANTHRENE, 56-49-5, Dose [Inhibitor]: 0, 50 UG/KG GIVEN TO OOPHERECTOMIZED MICE 3/WK FOR DURATION OF STUDY (STUDY DURATION: LIFETIME), Route [Inhibitor]: SUBCUTANEOUS, Species: MOUSE, Strain/Sex: SWISS/FEMALE, Target Tissue: Type of Lesion: CERVIX: CARCINOMA, Dose [Carcinogen]: CARCINOGEN AND BEESWAX (1:3) IMPREGNATED THREAD INSERTED IN THE CANAL OF THE UTERINE CERVIX, Promoter: NONE USED","62%, 27%, 56%, p<0.01"
same,"tumour outcome (control, treated, inhibition, significance)","Carcinogen: 7,12-DIMETHYLBENZ[A]ANTHRACENE (57-97-6), Dose [Inhibitor]: 0.125 MG/KG DIET FOR 17 WKS (STUDY DURATION: 17 WKS), Route [Inhibitor]: DIET, Species: RAT, Strain/Sex: SPRAGUE-DAWLEY/FEMALE (20,18)/(20,18), Target Tissue: Type of Lesion: MAMMARY, Dose [Carcinogen]: 12.5 MG ONCE 1 WK AFTER START OF DIETS (STUDY DURATION: 17 WKS)","95%, 73%, 23%, p=0.015"
same,"tumour outcome (control, treated, inhibition, significance)","Carcinogen: 7,12-DIMETHYLBENZ[A]ANTHRACENE (DMBA) (57-97-6), Dose [Inhibitor]: 50 MG/KG/D FOR 37 WK (STUDY DURATION: 37 WK), Route [Inhibitor]: ORAL GAVAGE, Species: MOUSE, Strain/Sex: SENCAR/FEMALE, Target Tissue: Type of Lesion: MAMMARY: CARCINOMA, Dose [Carcinogen]: 20 UG/D FOR 6 WKS (STUDY DURATION: 37 WKS), Promoter: MEDROXYPROGESTERONE ACETATE (71-58-9)","10/21 (48%); 0%, 100%, p=0.0004"
same,"tumour outcome (control, treated, inhibition, significance)","Carcinogen: 7,12-DIMETHYLBENZ[A]ANTHRACENE (DMBA) [57-97-6], Dose [Inhibitor]: 50 MG/KG/D FOR 52 WK (STUDY DURATION: 52 WK), Route [Inhibitor]: ORAL GAVAGE, Species: MOUSE, Strain/Sex: SENCAR/FEMALE, Target Tissue: Type of Lesion: MAMMARY: CARCINOMA, Dose [Carcinogen]: 20 UG/D FOR 6 WKS, Promoter: MEDROXYPROGESTERONE ACETATE (71-58-9)","13/23 (57%); 0/20 (0%), 100%, p=0.00003"
same,"tumour outcome (control, treated, inhibition, significance)","Carcinogen: 17 BETA-ESTRADIOL, 50-28-2, Dose [Inhibitor]: 25 MG PELLETS CONTAINING 90% TAMOXIFEN ADMINISTERED ONCE AT BEGINNING OF STUDY AND ONCE AT 3.5 MO, ADMINISTERED CONCURRE, Route [Inhibitor]: SUBCUTANEOUS IMPLANT, Species: HAMSTER, Strain/Sex: SYRIAN/MALE, Target Tissue: Type of Lesion: KIDNEY: RENAL CARCINOMA, Dose [Carcinogen]: 25 MG PELLETS CONTAINING 90% ESTRADIOL ONCE AT BEGINNING OF STUDY AND ONCE AT 3.5 MO, Promoter: NONE USED","3/3 (100%), 2/8 (25%), 75%, not calculated"
same,"tumour outcome (control, treated, inhibition, significance)","Carcinogen: ETHYL METHANESULFONATE, 62-50-0, Dose [Inhibitor]: 0, 50 MG/KG 1/WK FOR 4 WK BEGINNING POST CARCINOGEN TREATMENT (STUDY DURATION: 30 WK), Route [Inhibitor]: SUBCUTANEOUS, Species: RAT, Strain/Sex: WISTAR/FEMALE, Target Tissue: Type of Lesion: MAMMARY GLAND: CARCINOMA, Dose [Carcinogen]: 0.01 MOLAR SOLUTION IN DRINKING WATER FOR 12 WK, Promoter: NONE USED","100%, 100%, 0%, not significant"
same,"tumour outcome (control, treated, inhibition, significance)","Carcinogen: ETHYL METHANESULFONATE, 62-50-0, Dose [Inhibitor]: 0, 50 MG/KG 1/WK FOR 4 WK CONCOMITANTLY WITH CARCINOGEN TREATMENT (STUDY DURATION: 30 WK), Route [Inhibitor]: SUBCUTANEOUS, Species: RAT, Strain/Sex: WISTAR/FEMALE, Target Tissue: Type of Lesion: MAMMARY GLAND: CARCINOMA, Dose [Carcinogen]: 0.01 MOLAR SOLUTION IN DRINKING WATER FOR 12 WK, Promoter: NONE USED","100%, 50%, 50%, p<0.01"
same,"tumour outcome (control, treated, inhibition, significance)","Carcinogen: ETHYLNITROSOUREA [759-73-9], Dose [Inhibitor]: 420 MG/K DIET FOR 60 WK (STUDY DURATION: 60 WK), Route [Inhibitor]: DIET, Species: MOUSE, Strain/Sex: B6C3F1/MALE (?,44)/(?,47), Target Tissue: Type of Lesion: LIVER: HEPATOCELLULAR CARCINOMA, Dose [Carcinogen]: 120 UG/KG ONCE","11/44 (25%), 2/47 (4%), 84%, p<0.001"
same,"tumour outcome (control, treated, inhibition, significance)","Carcinogen: N-ETHYL-N'-NITRO-N-NITROSOGUANADINE, 4245-77-6, Dose [Inhibitor]: 0, 70 MG/KG BW IN CHOLESTEROL IMPLANTED 1 WK POST CARCINOGEN DOSE, IMPLANTS REPLACED AT 6 TO 8 WK INTERVALS FOR THE DURA, Route [Inhibitor]: SUBCUTANEOUS IMPLANT, Species: RAT, Strain/Sex: DONRYU/FEMALE, Target Tissue: Type of Lesion: UTERUS: ADENOCARCINOMA, Dose [Carcinogen]: 20 MG/KG BW ONCE, Promoter: NONE USED","9/29 (31%), 0/30 (0%), 100%, not calculated"
same,"tumour outcome (control, treated, inhibition, significance)","Carcinogen: N-ETHYL-N'-NITRO-N-NITROSOGUANADINE, 4245-77-6, Dose [Inhibitor]: 0, 70 MG/KG BW IN CHOLESTEROL IMPLANTED 20 WKS POST CARCINOGEN DOSE, IMPLANTS REPLACED AT 6 TO 8 WK INTERVALS FOR DURATI, Route [Inhibitor]: SUBCUTANEOUS IMPLANT, Species: RAT, Strain/Sex: DONYRU/FEMALE, Target Tissue: Type of Lesion: UTERUS: ADENOCARCINOMA, Dose [Carcinogen]: 20 MG/KG BW ONCE, Promoter: NONE USED","9/29 (31%), 0/29 (0%), 100%, not calculated"
same,"tumour outcome (control, treated, inhibition, significance)","Carcinogen: N-METHYL-N'-NITROSOUREA, 684-93-5, Dose [Inhibitor]: 0, 0.125 MG/KG IN DIET FOR DURATION OF STUDY BEGINNING 60 D PRIOR TO CARCINOGEN DOSE (STUDY DURATION: 240 D), Route [Inhibitor]: ORAL, Species: RAT, Strain/Sex: SPRAGUE-DAWLEY/FEMALE, Target Tissue: Type of Lesion: MAMMARY GLAND: TUMOR, Dose [Carcinogen]: 50 MG/KG BW ONCE, Promoter: NONE USED","68%, 62%, 9%, not significant"
same,"tumour outcome (control, treated, inhibition, significance)","Carcinogen: N-METHYL-N'-NITROSOUREA, 684-93-5, Dose [Inhibitor]: 0, 0.25 MG/KG IN DIET FOR DURATION OF STUDY BEGINNING 60 D PRIOR TO CARCINOGEN DOSE (STUDY DURATION: 240 D), Route [Inhibitor]: ORAL, Species: RAT, Strain/Sex: SPRAGUE-DAWLEY/FEMALE, Target Tissue: Type of Lesion: MAMMARY GLAND: TUMOR, Dose [Carcinogen]: 50 MG/KG BW ONCE, Promoter: NONE USED","80%, 25%, 69%, p<0.005"
same,"tumour outcome (control, treated, inhibition, significance)","Carcinogen: N-METHYL-N-NITROSOUREA, 684-93-5, Dose [Inhibitor]: 0, 0.2 MG/KG IN DIET FOR THE DURATION OF STUDY BEGINNING 7 D PRIOR TO CARCINOGEN DOSE (STUDY DURATION: 187 D), Route [Inhibitor]: ORAL, Species: RAT, Strain/Sex: SPRAGUE-DAWLEY/FEMALE, Target Tissue: Type of Lesion: MAMMARY GLAND: TUMOR, Dose [Carcinogen]: 50 MG/KG BW ONCE, Promoter: NONE USED","100%, 100%, 0%, not significant"
